What is called inhibition in vivo is the percentage by which the read-out fell short of the control. High values mean a response far below the control, low ones a response near the control. In general, IC50 refers to the concentration that inhibits the measured activity by half. A higher IC50 goes with lower potency. For orientation: ED50 means the dose that gives a 50% effect, or the effect in half of the subjects. Low readings indicate greater potency, high ones weaker potency. Broadly, the inhibition is the change of the read-out against control, counted positive when it falls. The low end stands for little suppression, the high end for strong suppression.

We go through twelve compounds from ChEMBL document CHEMBL1151517, “Morpholinoalkylindenes as antinociceptive agents: Novel cannabinoid receptor agonists” (Bioorg Med Chem Lett, 1995).

Test [1] relates to Mus musculus. The test can be described thus: Effective dose required for inhibition of oral acetylcholine (ACh) writhing activity in mice at 100 mg/Kg dose. The class given is functional.
Test [2] relates to Mus musculus. As to the kind of experiment: Concentration required for inhibition of electrically stimulated contraction of mouse vas deferens […]. The class given is functional.
The next test has as its target Cannabinoid receptor (Rattus norvegicus, UniProt Q9QZN9+P20272). The test can be described thus: Displacement of 0.5 nM [3H](R)-(+)-WIN-55212-2 from Cannabinoid receptor of rat cerebellar membranes. It counts as cell membranes, Membrane.
For test [3], the species on record is Mus musculus. As to the kind of experiment: Effective dose required for inhibition of oral acetylcholine (ACh) writhing activity in mice. It counts as functional. In general terms: In writhing tests, fewer writhes than in controls are read as antinociception.
In test [4] the test system is Mus musculus. As to the kind of experiment: Effective dose required for inhibition of oral acetylcholine (ACh) writhing activity in mice at 10 mg/Kg dose. It counts as functional.
Test [5] is described as follows: Compound was tested for inhibitory activity against prostaglandin synthetase in mouse brain microsomes.
Test [6] concerns the target Cannabinoid receptor (Rattus norvegicus) (UniProt Q9QZN9+P20272). The test can be described thus: Inhibition to displace 50% of 0.5 nM [3H](R)-(+)-WIN-55212-2 binding to Cannabinoid receptor in rat cerebellar membranes at 1 uM concentration. The class given is cell membranes. The settings on record: Membrane.

Structures are written as SMILES.

Sequence of Cannabinoid receptor (Rattus norvegicus) (P20272 whole entry, looked up): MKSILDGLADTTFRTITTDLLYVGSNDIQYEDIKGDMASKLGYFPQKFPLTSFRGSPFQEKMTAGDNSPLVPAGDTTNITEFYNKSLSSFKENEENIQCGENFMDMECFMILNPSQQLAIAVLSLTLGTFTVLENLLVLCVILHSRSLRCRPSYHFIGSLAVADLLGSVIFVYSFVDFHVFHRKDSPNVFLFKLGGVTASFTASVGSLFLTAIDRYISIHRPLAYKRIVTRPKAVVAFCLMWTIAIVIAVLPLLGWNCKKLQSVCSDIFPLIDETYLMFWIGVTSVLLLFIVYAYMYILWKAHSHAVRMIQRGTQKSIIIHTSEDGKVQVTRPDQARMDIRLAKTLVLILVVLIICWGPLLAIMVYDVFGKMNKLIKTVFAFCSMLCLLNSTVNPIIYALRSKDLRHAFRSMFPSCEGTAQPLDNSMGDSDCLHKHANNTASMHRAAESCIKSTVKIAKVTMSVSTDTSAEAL
Sequence of Cannabinoid receptor (Rattus norvegicus) (Q9QZN9 whole entry, looked up): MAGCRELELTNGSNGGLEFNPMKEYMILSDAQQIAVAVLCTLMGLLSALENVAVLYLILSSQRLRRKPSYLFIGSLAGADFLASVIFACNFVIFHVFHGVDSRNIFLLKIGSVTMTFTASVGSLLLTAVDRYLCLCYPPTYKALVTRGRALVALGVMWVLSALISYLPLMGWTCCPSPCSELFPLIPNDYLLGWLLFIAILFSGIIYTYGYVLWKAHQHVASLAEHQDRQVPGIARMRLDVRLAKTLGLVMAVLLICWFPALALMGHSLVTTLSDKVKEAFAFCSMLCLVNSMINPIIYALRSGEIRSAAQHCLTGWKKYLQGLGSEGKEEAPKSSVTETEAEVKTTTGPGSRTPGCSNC

In the test on Mus musculus [1], `COc1ccc(C=C2C(C)=C(CCN3CCOCC3)c3ccccc32)c2ccccc12` displayed an inhibition in vivo at 100 mg/kg of 39%. The IC50 with Mus musculus [2] stood at 350 nM.

Consider `COc1ccc(/C=C2\C=C(CCN3CCOCC3)c3ccccc32)cc1OC`, for which the IC50 was determined as 28000 nM at Cannabinoid receptor and 19 nM in the test with Mus musculus [2].

As for `CSc1ccc(/C=C2\C=C(CCN3CCOCC3)c3ccccc32)cc1`, the IC50 on Cannabinoid receptor was found to be 96000 nM. In addition, the ED50 in the test listed under Mus musculus [3] came to 50 mg/kg.

`COc1ccc(C=C2C(C)=C(CCN3CCOCC3)c3ccccc32)cc1` gave an IC50 at Cannabinoid receptor of 45000 nM. The same compound displayed an inhibition in vivo at 100 mg/kg with Mus musculus [1] of 30%.

Consider `C1=C(CCN2CCOCC2)c2ccccc2/C1=C/c1cccc2ccccc12`, for which the figures for the IC50 at Cannabinoid receptor and with Mus musculus [2] were 1000 nM and 7 nM, respectively. In addition, 10 mg/kg produced 83% inhibition in vivo with Mus musculus [4].

For the compound `Oc1ccc(/C=C2\C=C(CCN3CCOCC3)c3ccccc32)c2ccccc12`, the half-inhibitory concentration (IC50) on Cannabinoid receptor is 97000 nM.

`COc1ccc(C(=O)c2c(C)n(CCN3CCOCC3)c3ccccc23)cc1` [PRAVADOLINE]: the ED50 in the test listed under Mus musculus [3] was 41 mg/kg. Besides, the IC50 in the test on Mus musculus [2] turned out to be 530 nM; in test [5], 3500 nM.

As to `COc1ccc(/C=C2\C=C(CCN3CCOCC3)c3ccccc32)c2ccccc12`, the IC50 at Cannabinoid receptor turned out to be 900 nM; in the test on Mus musculus [2] it was 8 nM.

With `CC1=C(CCN2CCOCC2)c2ccccc2C1=Cc1cccc2ccccc12`, the IC50 was 10000 nM on Cannabinoid receptor and 45 nM in the test with Mus musculus [2].

In the test with Mus musculus [2], `C1=C(CCN2CCOCC2)c2ccccc2/C1=C/c1ccccc1` came in with an IC50 of 79 nM. In test [6], the inhibition stood at 33%.

Regarding `C[S+]([O-])c1ccc(/C=C2\C=C(CCN3CCOCC3)c3ccccc32)cc1` (centres undefined), the half-inhibitory concentration (IC50) in the test with Mus musculus [2] turned out to be 190 nM.

Turning to `COc1ccc(/C=C2\C=C(CCN3CCOCC3)c3ccccc32)cc1`, the IC50 came out at 58 nM on Cannabinoid receptor and 80 nM with Mus musculus [2].
